Data reported in patent publication EP1101492A1, “NOVEL REMEDIES FOR ALLERGIC DISEASES” (FUJI YAKUHIN KOGYO KABUSHIKI KAISHA, priority 1998, dated 2000).

Key:
[1] = test system: mouse contact-type (type IV) dermatitis models; assay: Type IV allergic dermatitis (oxazolone-induced auricle edema); type: in vivo, Balb/c mice; conditions: 50 mg/mL in ethanol
Procedure: Mice (male, Balb/c, 6 weeks old, 20 to 25 g) were sensitized by painting a 3% solution of oxazolone (100 µL) abdominally. Six days after sensitization, a 0.5% solution of oxazolone in acetone was painted on both sides of a right ear at a dose of 10 µL to raise auricle edema. An untreated group was painted with the solvent (acetone) alone onto both sides of a left ear of the same mouse at 10 µL. At 24 hours after edema-induction, each mouse was sacrificed with ether and an equivalent each of right and left auricles was stamped out with a puncher (diameter: 6 mm). Both left and right auricle sections were measure for their weight and each percent edema was calculated (Kazuo Ouchi (Ed.), "Seibutsu Yakukagaku Jikken Koza, Ensho To Allergy (Inflammation and Allergy) I-1", 1993, Hirokawa Publishing Co., Japan) Percent Edema (%) =((Right Auricular Segment Weight - Left Auricular Segment Weight))/(Left Auricular Segment Weight)× 100 [formula]
The solvent (ethanol) alone was painted on a left auricle at the same dose (treated group). Unsensitized mice were also treated for induction similarly and then treated with the compound of the present invention, only followed by examination for the potency of the compound of the present invention on auricles (unsensitized group). The number of animals used in the test was set 4 per group. […]

[2] = test system: guinea pig allergic rhinitis models; assay: Allergic rhinitis model: nasal airway resistance; type: in vivo, Guinea pigs; conditions: 15 mg/kg s.c. one hour prior to rhinitis-induction; N=5; recorded 20 minutes after antigen-challenge
Procedure: Guinea pigs (male, Std:Hartley, 3 weeks old) were housed and fed in a aluminum cage at a rate of up to 5 animals per cage. After acclimatization for 1 week, the guinea pigs were administered intravenously with an anti-ovalbumin antibody (Nihon Bioresearch Inc., Hajima Institute; antibody titer by a 3-hour homologous passive cutaneous anaphylaxis reaction, 1 : 8192) prepared according to the Orange & Moore method (Orange, R. P. and Moore, E. G., The Journal of Immunology 116: p.392-397, 1976) into their auricle vein at a dose of 0.3 mL/animal for passive sensitization. Twenty four to twenty six hours after sensitization under conditions of fast and free access to drinking water, the sensitized guinea pigs were anesthetized with urethane (1.2 g/kg, intraperitoneal administration), fixed in a supine position, and mediad excised cervically to expose tracheas. […] Variations of the ventilatory overflow were quantitatively recorded on a recticoder (RECTI-HORIZ-8K, Nippon Denki Sanei K.K.) for 20 minutes after antigen-challenge.
Wave height (cm) was measured on recorded papers and a nasal airway resistance value was calculated according to the following formula: Percent Increase (%) in Nasal Airway Resistance =((Observed Value) - (Value prior to Administration))/((Complete Obstruction)- (Value prior to Administration))× 100 [formula] […]

allergic peritonitis = assay: Allergic peritonitis induced with ragweed pollen extract (peritoneal exudate cells); type: in vivo, Balb/c mice; conditions: ragweed pollen extract challenge; 30 mg/kg i.p. 5 minutes prior to induction, 3, 6 and 12 hours post-induction; 24 hours after induction
Procedure: Each efficacy on allergic peritonitis was examined according to methods as disclosed in Ouchi et al., "Seibutsu Yakukagaku Jikken Koza, Ensho To Allergy (Inflammation and Allergy) I-3", pp.139 to 151, Hirokawa Publishing Co., Japan and Spicer et al., The International Archives of Allergy and Applied Immunology, 81: 81 to 84, 1986.
A ragweed (Ambrosia artemisiaefolia) pollen extract (1:100, Torii Pharmaceutical Co., Ltd.) was diluted 10-fold with physiological saline and administered subcutaneously to male Balb/c mice (7 weeks old, 20 to 23 g, purchased from JAPAN SLC, Inc.) on Days 0 and 1 at a single dose of 0.1 mL and further on Days 6, 8 and 14 at a single dose of 0.2 mL for sensitization. On Day 20 after the initial sensitization, an antigen solution for induction (a mixture of the aforementioned 10-fold diluted ragweed pollen extract, 50 units/mL of penicillin G potassium, and 0.05 mg/mL of streptomycin sulfate) was administered intraperitoneally to each animal at a dose of 0.2 mL to raise allergic peritonitis. […]
Twenty four hours after induction, mice were sacrificed under ether […] and each penitoneal cavity was lavaged twice or thrice with a washout medium (total volume: 5 mL, physiological saline containing 10 units/mL of heparin). […] The retrieved washout medium was measured for its yield (mL) and the number of exudate cells therein by using Turk solution and counting on a haemocytometer and a total number of PEC was calculated. […] After staining, PEC was subjected to fractional counts under a microscope with classification into eosinophils, neutrophils, lymphocytes/macrophages and basophils based on their form and stain nature (more than 500 PEC per specimen were randomly counted). […] After counting, intraperitoneal exudation inhibition rates were calculated by the following formula and expressed as the therapeutic efficacies: Inhibition Rate (%) =[1 -((PEC in Sensitized/Drug-Treated Mouse) - (PEC in Unsensitized/Saline-Treated Mouse))/((PEC in Sensitized/Saline-Treated Mouse) - (PEC in Unsensitized/Saline-Treated Mouse))]× 100 [formula]

## CNC(=O)[C@H](Cc1ccc(NC(=N)N)cc1)NC(=O)[C@H](CC(C)C)C(CCCc1ccccc1)C(=O)NO (single isomer, unassigned) [Compound No. 130, N-[4-(N-Hydroxyamino)-2(R)-isobutyl-3(R or S)-(3-phenyltrimethylene)succinyl)-L-4'-guanidophenylalanine-N-methylamide 1 acetate]
[1]; 10 µL per side painted on right auricle 0.5 hr prior to and 6 hours after edema-induction, 24 hours after induction
  development of auricle edemas (FIG. 13): amelioration of auricle edemas
[1]; unsensitized mice, 10 µL per side painted twice
  effect of the compound alone on auricles (FIG. 13): almost free of swelling and/or thinning
[2]
  increase in nasal airway resistance due to antigen challenge (FIG. 15): markedly ameliorates an increase in nasal airway resistance
Allergic peritonitis
  decrease in total PEC number: 143.8%
  inhibition of infiltration of eosinophils into the peritoneal cavity: 57.2%
  inhibition of infiltration of lymphocytes/macrophages into the peritoneal cavity: 219.0%
